{"source": "ChEMBL document CHEMBL1125906", "about": "“Three-dimensional structure-activity relationships and receptor mapping of N1-substituents of quinolone antibacterials” (1991)", "data": [{"tested_on": "Escherichia coli", "experiment": "Biological activity against Escherichia coli N1HJ JC-2 relative to Norfloxacin.", "format": "functional", "values": [{"smiles": "Cc1ccc(-n2cc(C(=O)O)c(=O)c3cc(F)c(N4CCN(C)CC4)cc32)cc1", "activity relative to norfloxacin": 0.25}, {"smiles": "C[C@@H]1COc2c(N3CCN(C)CC3)c(F)cc3c(=O)c(C(=O)O)cn1c23", "note": "[DEXTROFLOXACINE]", "activity relative to norfloxacin": 0.25}, {"smiles": "Cc1ccccc1-n1cc(C(=O)O)c(=O)c2cc(F)c(N3CCN(C)CC3)cc21", "activity relative to norfloxacin": 0.25}, {"smiles": "COc1ccc(-n2cc(C(=O)O)c(=O)c3cc(F)c(N4CCN(C)CC4)cc32)cc1", "activity relative to norfloxacin": 0.004}, {"smiles": "C[C@H]1COc2c(N3CCN(C)CC3)c(F)cc3c(=O)c(C(=O)O)cn1c23.C[C@H]1COc2c(N3CCN(C)CC3)c(F)cc3c(=O)c(C(=O)O)cn1c23.O", "note": "[LEVOFLOXACIN]", "activity relative to norfloxacin": 4}, {"smiles": "Cc1cccc(C)c1-n1cc(C(=O)O)c(=O)c2cc(F)c(N3CCN(C)CC3)cc21", "activity relative to norfloxacin": "< 0.004"}, {"smiles": "Cc1csc2c(C(=O)O)c(=O)c3cc(F)c(N4CCNCC4)cc3n12", "activity relative to norfloxacin": 4}, {"smiles": "Cn1cc(C(=O)O)c(=O)c2cc(F)c(N3CCNCC3)cc21", "activity relative to norfloxacin": 0.25}, {"smiles": "CN1CCN(c2cc3c(cc2F)c(=O)c(C(=O)O)cn3-c2ccccc2F)CC1", "activity relative to norfloxacin": 0.25}, {"smiles": "CCn1cc(C(=O)O)c(=O)c2cc(F)c(N3CCNCC3)cc21", "note": "[NORFLOXACIN]", "activity relative to norfloxacin": 4}, {"smiles": "CN1CCN(c2cc3c(cc2F)c(=O)c(C(=O)O)cn3-c2ccc(F)cc2)CC1", "note": "[DIFLOXACIN]", "activity relative to norfloxacin": 4}, {"smiles": "CN1CCN(c2cc3c(cc2F)c(=O)c(C(=O)O)cn3-c2ccc(O)cc2)CC1", "activity relative to norfloxacin": 4}, {"smiles": "CCCn1cc(C(=O)O)c(=O)c2cc(F)c(N3CCNCC3)cc21", "activity relative to norfloxacin": 0.25}, {"smiles": "CN1CCN(c2cc3c(cc2F)c(=O)c(C(=O)O)cn3-c2ccc(Br)cc2)CC1", "activity relative to norfloxacin": 0.0312}, {"smiles": "CN1CCN(c2cc3c(cc2F)c(=O)c(C(=O)O)cn3-c2cccc(F)c2)CC1", "activity relative to norfloxacin": 0.0312}, {"smiles": "CN1CCN(c2cc3c(cc2F)c(=O)c(C(=O)O)cn3-c2ccccc2)CC1", "activity relative to norfloxacin": 0.25}, {"smiles": "O=C(O)c1cn(Cc2ccccc2)c2cc(N3CCNCC3)c(F)cc2c1=O", "activity relative to norfloxacin": 0.25}, {"smiles": "C=CCn1cc(C(=O)O)c(=O)c2cc(F)c(N3CCNCC3)cc21", "activity relative to norfloxacin": 0.25}, {"smiles": "CN1CCN(c2cc3c(cc2F)c(=O)c(C(=O)O)cn3-c2ccc(Cl)cc2)CC1", "activity relative to norfloxacin": 0.25}, {"smiles": "O=C(O)c1c(=O)c2cc(F)c(N3CCNCC3)cc2n2ccsc12", "activity relative to norfloxacin": 4}, {"smiles": "CNn1cc(C(=O)O)c(=O)c2cc(F)c(N3CCN(C)CC3)cc21", "note": "[AMIFLOXACIN]", "activity relative to norfloxacin": 4}, {"smiles": "O=C(O)c1cn(C2CC2)c2cc(N3CCNCC3)c(F)cc2c1=O", "note": "[CIPROFLOXACIN]", "activity relative to norfloxacin": 4}, {"smiles": "CN1CCN(c2cc3c(cc2F)c(=O)c(C(=O)O)c2n3CCS2)CC1", "activity relative to norfloxacin": 4}, {"smiles": "O=C(O)c1cn(CCO)c2cc(N3CCNCC3)c(F)cc2c1=O", "activity relative to norfloxacin": 0.25}, {"smiles": "O=C(O)c1cn(CCF)c2cc(N3CCNCC3)c(F)cc2c1=O", "activity relative to norfloxacin": 4}, {"smiles": "CN(C)CCn1cc(C(=O)O)c(=O)c2cc(F)c(N3CCNCC3)cc21", "activity relative to norfloxacin": 0.0312}, {"smiles": "CN1CCN(c2cc3c(cc2F)c(=O)c(C(=O)O)cn3-c2ccc3c(c2)OCO3)CC1", "activity relative to norfloxacin": 0.25}, {"smiles": "CN1CCN(c2cc3c(cc2F)c(=O)c(C(=O)O)cn3-c2ccc(F)cc2F)CC1", "activity relative to norfloxacin": 4}, {"smiles": "C=Cn1cc(C(=O)O)c(=O)c2cc(F)c(N3CCNCC3)cc21", "activity relative to norfloxacin": 4}]}]}
